From patent US9040573B2, “Anti-fungal agent” (Nihon Nohyaku Co., Ltd., priority 2011, dated 2015)
Values after ≈ are worked out from the molar mass of the structure shown. Read-outs that look alike come from different tables or passages of the source.

Columns and labels:
Scytalidium dimidiatum = assay: Antifungal Activity Test 1: MIC by broth microdilution method (Alamar Blue); assay type: cell-based; conditions: Neoscytalidium dimidiatum; for MIC: growth inhibited by 80% or more, read-out: MIC
From the text: Scytalidium dimidiatum strain of clinical isolate obtained by separation and identification from nail or stratum corneum of patients with superficial mycosis was used. The fungi pre-cultured on an SDA medium was suspended in 0.1% (w/v) Tween 80-containing sterile saline and the suspension was filtered through gauze to collect arthrospore. This was suspended in 0.1% (w/v) Tween 80-containing sterile saline, and added to a 20% Alamar Blue-containing medium to 2×10^4 cells/mL to give a fungal inoculum solution.
(§1) Each drug was used after dissolving in DMSO (dimethyl sulfoxide).
(§2) The minimum inhibitory concentration (MIC) was measured by a broth microdilution method. That is, RPMI1640 medium (Sigma-Aldrich) was buffered with 0.165 M morpholine propanesulfonic acid (MOPS, Wako Pure Chemical Industries, Ltd.) to pH 7.0, and a given amount of a solution of the drug in DMSO was added thereto to prepare 2-fold dilution series within the range of 0.00098-4 μg/mL. This was added to a 96-well microplate by 100 μL, a fungal inoculum solution (100 μL, final concentration of fungi to be added: 1.0×10^4 cells/mL) was added, and the mixture was cultured at 35° C. An Alamar Blue reagent was added in advance to the culture medium (final addition concentration: 10%) and, at the time point when the Alamar Blue reagent in the drug-free growth control group changed from blue to red, the culture was discontinued and the absorbance (differential optical density at 570 nm based on 590 nm served as reference) measured. The minimum concentration of the drug that inhibited the growth of the fungus in the growth control group by 80% or more was taken as MIC. The concentration to be MIC (MIC90) in 9 strains out of the 10 strains (90%) measured was determined.
Reference documents for measurement method: Takako Shinoda et al.: opinion proposed by Committee for Clinical Laboratory Standards of The Japanese Society for Medical Mycology (1995-1997), Method for antifungal susceptibility testing of filamentous fungus, Medical Mycology Journal, 40: 239-257, 1999. Clinical Laboratory Standards Institute/National Committee for Clinical Laboratory Standards. Reference method for broth dilution antifungal susceptibility testing of filamentous fungus. Approved Standard M38-A2. Wayne, Pa.: National Committee for Clinical Laboratory Standards, 2008. Test Results

Scytalidium hyalinum = assay: Antifungal Activity Test 2: MIC by broth microdilution method (Alamar Blue); assay type: cell-based; conditions: Neoscytalidium hyalinum
Method: as §2
Scytalidium hyalinum strain of clinical isolate available from CBS (Netherlands) was used. The fungus was pre-cultured in an SDA medium, 0.1% (w/v) Tween 80-containing sterile saline was added to give a suspension, which was filtered through gauze to collect arthrospore. This was suspended in 0.1% (w/v) Tween 80-containing sterile saline, and added to a 20% Alamar Blue-containing medium to 2×10^4 cells/mL to give a fungal inoculum solution.
as §1
The test method was the same as in the aforementioned antifungal activity test 1, and the minimum concentration of the drug that inhibited the growth of the fungus in the growth control group by 80% or more was taken as MIC. The MIC range of the 4 strains measured and the geometric mean (GM) of each drug were determined.

C[C@@H](c1ncncc1F)[C@](O)(Cn1cncn1)c1ccc(F)cc1F [VCZ, voriconazole]
MIC (Scytalidium dimidiatum; clinical isolate 530129): 0.25 µg/mL (≈ 0.716 µM)
MIC (Scytalidium dimidiatum; clinical isolate 530142): 0.25 µg/mL (≈ 0.716 µM)
MIC (Scytalidium dimidiatum; clinical isolate 530251): 0.13 µg/mL (≈ 0.372 µM)
MIC (Scytalidium dimidiatum; clinical isolate 530621): 0.25 µg/mL (≈ 0.716 µM)
MIC (Scytalidium dimidiatum; clinical isolate 530633): 0.25 µg/mL (≈ 0.716 µM)
MIC (Scytalidium dimidiatum; clinical isolate 530914): 0.25 µg/mL (≈ 0.716 µM)
MIC (Scytalidium dimidiatum; clinical isolate 530946): 0.25 µg/mL (≈ 0.716 µM)
MIC (Scytalidium dimidiatum; clinical isolate 530999): 0.13 µg/mL (≈ 0.372 µM)
MIC (Scytalidium dimidiatum; clinical isolate 531581): 0.25 µg/mL (≈ 0.716 µM)
MIC (Scytalidium dimidiatum; clinical isolate 531869): 0.13 µg/mL (≈ 0.372 µM)
MIC90 (Scytalidium dimidiatum; concentration to be MIC in 9 strains out of the 10 strains (90%), read-out: MIC90): 0.25 µg/mL (≈ 0.716 µM)
MIC (Scytalidium hyalinum; clinical isolate CBS200.88, growth inhibited by 80% or more, read-out: MIC): 0.13 µg/mL (≈ 0.372 µM)
MIC (Scytalidium hyalinum; clinical isolate CBS545.95, growth inhibited by 80% or more, read-out: MIC): 0.063 µg/mL (≈ 0.18 µM)
MIC (Scytalidium hyalinum; clinical isolate CBS601.85, growth inhibited by 80% or more, read-out: MIC): 0.016 µg/mL (≈ 0.0458 µM)
MIC (Scytalidium hyalinum; clinical isolate CBS619.84, growth inhibited by 80% or more, read-out: MIC): 0.13 µg/mL (≈ 0.372 µM)
MIC (Scytalidium hyalinum; geometric mean of the 4 strains measured, read-out: GM (geometric mean of MIC)): 0.064 µg/mL (≈ 0.183 µM)
MIC (Scytalidium hyalinum; range of the 4 strains measured, read-out: MIC range): 0.016 to 0.13 µg/mL (≈ 0.0458 to 0.372 µM)
